Consider 5 compounds from publication PMC11997985, “Synthesis and In Vitro Profiling of Psilocin Derivatives: Improved Stability and Synthetic Properties” (Journal of Medicinal Chemistry, 2025).

Several values for one entry are separate records, joined by “and”; a condition that tells them apart may be missing. Equal entries are not always repeated. Marks after values point to notes of the source that are not given here. Where only a bound is given, the exact number is not on record here.

Series [1] is described as follows: Compounds in pre-precipitated (inactivated) plasma. The class given is in vitro ADME, human. The conditions noted are these: for % found in incubation plasma at time 0.2 min: peak area in incubation plasma versus pre-precipitated plasma; for degradation in inactivated plasma: plasma pretreated with acetonitrile. Here is the method:
(§1) Materials for experiments described in the supporting information (solubility) […]
(§2) Dimethylsulfoxide (DMSO) CHROMASOLV™ Plus, >99.7%
(§3) Acetonitrile (MeCN) LiChrosolv, hypergrade for LC-MS, Merck Chemicals
(§4) Formic acid (HCOOH) For LC-MS, Carlo-Erba
(§5) Water > 18MΩcm quality (Milli-Q, Millipore
(§6) Di-sodium-hydrogenphoshate dihydrate Merck
(§7) Sodium-dihydrogenphosphate monohydrate Merck
(§8) Autosampler Agilent 1260 Multisampler, G7167A
(§9) Gradient LC-pump Agilent 1260 Flexible Pump, G7104C
(§10) Analytical Flow 0.5 mL/min
(§11) Analytical column Luna® Omega 1.6 µm Polar C18 100Å, 50 x 2.1 mm
(§12) Injection volume 3.0 µL (15 µL for “high” injection of buffer sample) […]
(§13) Mobile phase A H2O/MeCN/Formic acid 95/5/0.1
(§14) Mobile phase B H2O/MeCN/Formic acid 5/95/0.1
(§15) Materials and analytical parameters for FT-ICR-MALDI-HRMS
(§16) The high-resolution mass spectrometry (HR-MS) experiments were performed using a MALDI-Fourier-transform ion cyclotron resonance (FTICR) (7T solariX XR-2ω, Bruker Daltonics) mass spectrometer equipped with a Smartbeam II 2 kHz laser. Briefly, a stock solution (1mg/ml) of the compound 5 was prepared and mixed 1:1 with a matrix solution containing DHB (40 mg/ml) in 50% ACN (0.02% TFA). 1 µl of the mixed solution was spotted onto MPTP MALDI target plate (Bruker Daltonics) and dried at room temperature. The instrument was tuned for optimal detection of small molecules (m/z 86–500) in positive polarity using the quadrature phase detection (QPD) (2ω) mode. The method was calibrated with red phosphorus over the mass range and DHB matrix ion [2M–2H2O+H]+ m/z 273.039364 was used as lock mass. The compound was identified with sub ppm mass accuracy and specific isotopic pattern of boron in its molecular structure.
(§17) Incubation samples. 10 mM stock solutions of test compounds in DMSO were used to prepare 100 μM solutions by dilution in EtOH/water 25/75 (v/v). 6 μL of the 100 μM solution was spiked into 594 μL pre-warmed plasma at 37 °C giving a final concentration of 1 μM. The incubation tube was then mixed on a vortex. A sample (60 μL) was taken and added to an Eppendorf tube containing 180 μL acetonitrile. The tube was thoroughly mixed with a vortex. The precipitated sample was then treated with centrifugation (10.000 g, 10 minutes, 18 °C), 150 μL of the supernatant was mixed with 450 μL water directly into a LC-vial (glass). This step was repeated for every time point. The first time point was approximately taken 15-20 seconds after spiking.
(§18) Other timepoints were 5,10, 30, 60, 120, 240 minutes. Pre-precipitated samples. 594 μL of pre-warmed plasma was precipitated with 1800 μL ACN. 6 μL of the 100 μM solution was spiked into the precipitated plasma. 1 mL was removed and added to an Eppendorf tube. After a centrifugation step (10.000 g, 10 minutes, 18 °C), 150 μL of the supernatant was mixed with 450 μL water directly into a LC-vial (glass).
(§19) Metabolic stability in human microsomes
(§20) The assay was run at 37°C with a microsomal protein concentration of 0.5 mg/mL and a compound concentration of 1 μM in a 0.1 M potassium phosphate buffer at pH 7.4. The compounds were added to the microsome suspension whereafter the enzymatic reaction was initiated by the addition of the co-factor NADPH, giving a final NADPH concentration of 1 mM (Table 9). Samples […]
Table S6 Time-dependent decline in concentration of five compounds for in vitro plasma stability in human plasma and […]
Plasma stability. The compounds were incubated separately at a concentration of 1 μM in +37°C pre-warmed pooled human plasma from commercial resources. The incubations were performed over a four-hour period with the first sample taken after addition of the compounds to plasma followed by a thorough mixing, with further sampling at 5, 10, and 30 minutes as well as 1, 2, and 4 hours. The samples were analyzed by LC-MS/MS using relative peak areas for the calculations of the time-dependent […]
Table S7 Comparison of peak area in incubation plasma after addition and mixing with pre-precipitated plasma. […]

Series [2] can be described thus: Stability in simulated stomach acid (0.10 M HCl). The conditions noted are these: 0.10 M HCl (simulated stomach acid).
The nature of series [3]: Plasma stability in human plasma. Conditions: for half-life at 1 μM / remaining at 12 s, 1 μM / remaining at 5 min, 1 μM / remaining at 0.5 h, 1 μM / remaining at 1 h, 1 μM / remaining at 2 h, 1 μM / remaining at 4 h, 1 μM / remaining at 10 min, 1 μM: human, pooled human plasma; for half-life at 1 μM: 37 °C, read-out: T ½ in human plasma; for remaining at 12 s, 1 μM: 0.2 min (first sample, reference); for remaining at 0.5 h, 1 μM: 30 min; for remaining at 1 h, 1 μM: 60 min; for remaining at 2 h, 1 μM: 120 min; for remaining at 4 h, 1 μM: 240 min; for degradation in human plasma: sampling at 5 min and later. The class given is in vitro ADME.
Source text: It should be noted that esterase-labile compounds are notoriously difficult to study in microsomal stability studies.[36]
as §1, §2, §3, §4, §5, §6, §7, §8, §9, §10, §11, §12, §13, §14, §15
as §16, with “mass.” for “mass. The compound was identified with sub ppm mass accuracy and specific isotopic pattern of boron in its molecular structure.”
as §17, §18, §19, §20
Plasma stability. The compounds were incubated separately at a concentration of 1 μM in +37°C pre-warmed pooled human plasma from commercial resources. The incubations were performed over a four-hour period with the first sample taken after addition of the compounds to plasma followed by a thorough mixing, with further sampling at 5, 10, and 30 minutes as well as 1,

Series [4] is described as follows: Metabolic stability in human microsomes. Format: in vitro ADME. Conditions: for Metabolic stability in human microsomes: 37 °C, 0.5 mg/mL protein, 1 μM compound, 1 mM NADPH; for Comment on microsome assay: Table S3.
The next series deals with porcine liver esterase. Description: Stability in FaSSIF supplemented with esterase. The conditions noted are these: for % prodrug remaining, measured after 1 min: after 1 min at 20 IU/mL; for % prodrug remaining, no esterase 30 min: after 30 min with no esterase; for predicted half-life: at 270 IU/mL; for predicted abs.: calculated remaining prodrug available for GI absorption, predicted level after 5 min at 270 IU/mL (% remaining prodrug); for half-life at 0.292 mM: pig, FaSSIF supplemented with porcine liver esterase (20 IU/mL).

For `CN(C)CCc1c[nH]c2cccc(OP(=O)(O)O)c12` [Compound 8, 4-phosphoryloxy-N,N-dimethyltryptamine, reference compound], in series [1], the “% found in incubation plasma at time 0.2 min” value (“% found in incubation plasma” for short) came to 67% and the “degradation in inactivated plasma” value is “fairly stable”. In series [2], this compound returned a half-life at 5 mM greater than 167 h. In series [3], the half-life at 1 μM is greater than 480 min; the fraction remaining at 12 s, 1 μM amounted to 100%; the fraction remaining at 5 min, 1 μM stood at 135%; the share remaining at 0.5 h, 1 μM turned out to be 130%. In addition, in series [3], the fraction remaining at 1 h, 1 μM was determined as 122%; the fraction remaining at 2 h, 1 μM turned out to be 127%; the share remaining at 4 h, 1 μM was found to be 122%; the “degradation in human plasma” value was “no degradation was observed”. Further, the “Metabolic stability in human microsomes” value in series [4] was <10/<10^b μL/min/mg protein and <10 μL/min/mg protein.

With `CN(C)CCc1c[nH]c2cccc(OC(=O)C3CC3)c12.O=C(O)/C=C/C(=O)O` [Compound 4g], in series [1], the “% found in incubation plasma” value worked out at 90% and the “degradation in inactivated plasma” value is “fairly stable”. Besides, the half-life at 5 mM in series [2] was greater than 167 h. In addition, in series [3], the half-life at 1 μM is less than 5 min; the amount remaining at 12 s, 1 μM came out at 100%; the amount remaining at 5 min, 1 μM was determined as 1.5%; the share remaining at 10 min, 1 μM was found to be 0.1%. For the same compound, in series [3], the share remaining at 0.5 h, 1 μM worked out at 0%; the amount remaining at 1 h, 1 μM was 0%; the fraction remaining at 2 h, 1 μM worked out at 0%; the fraction remaining at 4 h, 1 μM amounted to 0%. For the same compound, the “degradation in human plasma” value in series [3] is given as “almost no compound remained”. In series [4], the “Metabolic stability in human microsomes” value was >200^a μL/min/mg protein and >200 μL/min/mg protein; the “Comment on microsome assay” value is recorded as “Rapid degradation”. For the same compound, in the series with porcine liver esterase, the “% prodrug remaining, measured after 1 min” value worked out at 57%; the “% prodrug remaining, no esterase 30 min” value amounted to 100%; the predicted half-life was 0.09 min; the predicted abs. is 1.9 × 10^–15. Further, the half-life at 0.292 mM in the series with porcine liver esterase was 1.22 ± 0.04 min.

For `CC(=O)Oc1cccc2[nH]cc(CCN(C)C)c12.O=C(O)/C=C/C(=O)O` [Compound 4a, 4-acetoxy-N,N-dimethyltryptamine], in series [1], the “% found in incubation plasma” value amounted to 9.8% and the “degradation in inactivated plasma” value was “heavily degraded”. In addition, the half-life at 5 mM in series [2] is greater than 167 h. Further, in series [3], the half-life at 1 μM is less than 5 min; the amount remaining at 12 s, 1 μM was 100%; the share remaining at 5 min, 1 μM stood at 0.2%; the share remaining at 10 min, 1 μM came out at 0.2%. In series [3], the fraction remaining at 0.5 h, 1 μM was found to be 0.2%; the amount remaining at 1 h, 1 μM was found to be 0.2%; the share remaining at 2 h, 1 μM was 0.1%; the share remaining at 4 h, 1 μM turned out to be 0.2%. For the same compound, the “degradation in human plasma” value in series [3] is “almost no compound remained”. In addition, in series [4], the “Metabolic stability in human microsomes” value is >200^a μL/min/mg protein and >200 μL/min/mg protein; the “Comment on microsome assay” value is given as “Rapid degradation”. Besides, in the series with porcine liver esterase, the “% prodrug remaining, measured after 1 min” value was 47%; the predicted half-life is 0.07 min; the predicted abs. was 6.2 × 10^–21; the half-life at 0.292 mM was found to be 0.91 ± 0.1 min.

Take `CN(C)CCc1c[nH]c2cccc(OCc3ccccc3)c12` [Compound 3, 4-Benzyloxy-N,N-dimethyltryptamine]: in series [1], the “% found in incubation plasma” value worked out at 115% and the “degradation in inactivated plasma” value is reported as “fairly stable”. The compound also returned a half-life at 5 mM in series [2] greater than 167 h. Further, in series [3], the half-life at 1 μM was greater than 480 min; the share remaining at 12 s, 1 μM was found to be 100%; the amount remaining at 5 min, 1 μM stood at 103%; the share remaining at 10 min, 1 μM amounted to 103%. In addition, in series [3], the fraction remaining at 0.5 h, 1 μM is 105%; the share remaining at 1 h, 1 μM is 111%; the fraction remaining at 2 h, 1 μM is 110%; the fraction remaining at 4 h, 1 μM came to 107%. For the same compound, the “degradation in human plasma” value in series [3] is recorded as “no degradation was observed”. In addition, the “Metabolic stability in human microsomes” value in series [4] was 43 μL/min/mg protein and 44 μL/min/mg protein.

Turning to `CCOC(=O)Oc1cccc2[nH]cc(CCN(C)C)c12.O=C(O)/C=C/C(=O)O` [Compound 4i], in series [1], the “% found in incubation plasma” value was 17% and the “degradation in inactivated plasma” value is listed as “heavily degraded”. Besides, the half-life at 5 mM in series [2] is greater than 167 h. Also, in series [3], the half-life at 1 μM is less than 5 min; the share remaining at 12 s, 1 μM turned out to be 100%; the fraction remaining at 5 min, 1 μM was 0%; the amount remaining at 10 min, 1 μM amounted to 0%. For the same compound, in series [3], the share remaining at 0.5 h, 1 μM was 0%; the amount remaining at 1 h, 1 μM was 0%; the share remaining at 2 h, 1 μM is 0%; the amount remaining at 4 h, 1 μM amounted to 0%. In addition, the “degradation in human plasma” value in series [3] is on record as “almost no compound remained”. Besides, in series [4], the “Metabolic stability in human microsomes” value is >200^a μL/min/mg protein and >200 μL/min/mg protein; the “Comment on microsome assay” value is given as “Rapid degradation”. Further, in the series with porcine liver esterase, the “% prodrug remaining, measured after 1 min” value is listed as 28%; the “% prodrug remaining, no esterase 30 min” value came out at 100%; the predicted half-life is reported as 0.04 min; the predicted abs. is 2.6 × 10^–35. The compound further displayed a half-life at 0.292 mM in the series with porcine liver esterase of 0.56 ± 0.12 min.
